Reference: patent publication EP0181109B1, “N6-benzopyrano- and benzothiopyrano-adenosines” (WARNER-LAMBERT COMPANY, priority 1984, dated 1986)

Assays:
[1] = target: T1, adenosine A2 receptor (Rattus norvegicus, UniProt P30543); assay: Adenosine Receptor Binding - A2 Receptor Affinity (RBA2), [3H]NECA displacement in striatal membranes; settings: 4 nM [3H]NECA, 50 nM N6-cyclopentyladenosine, 60 minutes at 25°C, read-out: RBA-2 (IC50, A2 receptor affinity)
T1 construct: Brains were thawed and then kept on ice while the striata were dissected out; tissue Pel-Freez (Rogers, Arkansas); host or cells: rat striatum (membranes)
Experimental: Brains from 200-500 g mixed sex Sprague-Dawley rats were purchased from Pel-Freez (Rogers, Arkansas). Fresh brains from male Long-Evans hooded rats (Blue Spruce Farms, Altamont, NY) gave essentially identical results. Brains were thawed and then kept on ice while the striata were dissected out. Striata were disrupted in 10 vol of ice-cold 50 mM Tris·HCl (pH 7.7 at 25°C, pH 8.26 at 5°C) (Tris) for 30 seconds in a Polytron PT―10 (Brinkmann) at setting 5. The suspension was centrifuged at 50,000 xg for ten minutes, the supernatant discarded, the pellet resuspended in 10 vol ice-cold Tris as above, recentrifuged, resuspended at 1 g/5 ml, and stored in plastic vials at -70°C (stable for at least six months). When needed, tissue was thawed at room temperature, disrupted in a Polytron, and kept on ice until used.
All incubations were for 60 minutes at 25°C in 12 x 75 mm glass tubes containing 1 ml Tris with 5 mg original tissue weight of rat weight of rat striatal membranes, 4 nM [^3H]-N-ethyl adenosine-5'-carboxamide ([^3H]NECA), 50 nM N^s-cyclopentyladenosine (to eliminate A1 receptor binding), 10 mM MgCI2, 0.1 units/ml of adenosine deaminase and 1% dimethylsulfoxide. N^6-Cyclopentyladenosine was dissolved at 10 mM in 0.02 N HCI and diluted in Tris. Stock solutions and dilutions of N^6-cyclopentyladenosine could be stored at -20°C for several months. Test compounds were dissolved at 10 mM in dimethylsulfoxide on the same day as the experiment, and diluted in dimethylsulfoxide to 100x the final incubation concentration. Control incubations received an equal volume (10 µl) of dimethylsulfoxide; the resulting concentration of dimethylsulfoxide had no effect on binding. [^3H]NECA was diluted to 40 nM in Tris. The membrane suspension (5 mg/0.79 ml) contained sufficient MgC12 and adenosine deaminase to give 10 mM and 0.1 units/ml, respectively, final concentration in the incubation. […] After all additions, the rack of tubes was vortexed, and the tubes were then incubated for 60 min at 25°C in a shaking water bath. The rack of tubes was vortexed an additional time halfway through the incubation.
Incubations were terminated by filtration through 2.4 cm GF/B filters under reduced pressure. Each tube was filtered as follows: the contents of the tube were poured onto the filter, 4 ml of ice-cold Tris were added to the tube and the contents poured onto the filter, and the filter was washed twice with 4 ml of ice-cold Tris. The filtration was complete in about 12 seconds. Filters were put in scintillation vials, 8 ml of Formula 947 scintillation fluid added, and the vials left overnight, shaken, and counted in a liquid scintillation counter at 40% efficiency.
Nonspecific binding was defined as binding in the presence of […] N^6-cyclopentyladenosine, and specific binding was defined as total binding minus nonspecific binding. The IC50 was calculated by weighted nonlinear least squares curve-fitting to the mass action equation. [formula] • where Y is cpm bound • T is cpm total binding without drug • S is cpm specific binding without drug • D is the concentration of drug • and K is the IC50 of the drug Weighting factors were calculated under the assumption that the standard deviation was proportional to the predicted value of Y. Nonspecific binding was treated as a very large (infinite) concentration of drug in the computer analysis.

[2] = target: T2, adenosine A1 receptor (Rattus norvegicus, UniProt P25099); assay: Adenosine Receptor Binding - A1 Receptor Affinity (RBA 1), [3H]-CHA displacement; settings: rat whole brain membranes, 1.0 nM [3H]-CHA, one hour at 25°C
T2 construct: Whole brain minus cerebellum and brainstem from male Long Evans rats (150-200 g) was homogenized; from tissue; host or cells: rat whole brain minus cerebellum and brainstem (membrane homogenate)
T2 sequence (P25099 1-326): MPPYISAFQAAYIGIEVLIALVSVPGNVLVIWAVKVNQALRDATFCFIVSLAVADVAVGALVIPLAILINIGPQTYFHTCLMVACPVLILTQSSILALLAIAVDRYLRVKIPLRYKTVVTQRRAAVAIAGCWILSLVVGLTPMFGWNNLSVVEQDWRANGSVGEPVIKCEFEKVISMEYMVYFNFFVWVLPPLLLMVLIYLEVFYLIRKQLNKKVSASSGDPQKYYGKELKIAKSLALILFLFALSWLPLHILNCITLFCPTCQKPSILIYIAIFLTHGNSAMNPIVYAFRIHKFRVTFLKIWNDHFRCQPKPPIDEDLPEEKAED
Experimental: Whole brain minus cerebellum and brainstem from male Long Evans rats (150-200 g) was homogenized in 30 volumes of ice-cold 0.05 M Tris-HCI buffer pH 7.7 using a Brinkman Polytron PT-10, (setting number 6 for 20 seconds) and centrifuged for ten minutes at 20,000 x g (Sorvall RC-2), 4°C. The supernatant was discarded, and the pellet was resuspended and centrifuged as before. The pellet was resuspended in 20 ml Tris-HCI buffer containing two International Units/ml of adenosine deaminase (Sigma Type III from calf intestinal mucosa), incubated at 37°C for 30 minutes, then subsequently at 0°C for ten minutes. The homogenate was again centrifuged, and the final pellet was resuspended in ice-cold 0.05 M Tris-HCI buffer pH 7.7 to a concentration of 20 mg/ml original wet tissue weight and used immediately.
Tissue homogenate (10 mg/ml) was incubated in 0.05 M Tris-HCI buffer pH 7.7 containing 1.0 nM [^3H]-N^6-cyclohexyladenosine (^3H]-CHA) with or without test agents in triplicate for one hour at 25°C. Incubation volume was 2 ml. Unbound [^3H]-CHA was separated by rapid filtration under reduced pressure through Whatman glass fiber (GF/B) filters. The filters were rinsed three times with 5 ml of ice cold 0.05 M Tris-HCI buffer pH 7.7. The radio-labele ligand retained on the filter was measured by liquid scintillation spectrophotometry after shaking the filters for one hour or longer on a mechanical shaker in 10 ml of Beckman Ready-Solv HP scintillation cocktail.
Nonspecific binding was defined as the binding which occurred in the presence of 1 mM theophylline. The concentration of test agent which inhibited 50% of the specific binding (IC50) was determined by nonlinear computer curve fit. The Scatchard plot was calculated by linear regression of the line obtained by plotting the amount of radioligand bound (pmoles/gram of tissue) versus
• bound radioligand • free radioligand Since the amount of radioligand bound was a small fraction of the total amount added, free radioligand was defined as the concentration (nM) of radioligand added to the incubation mixture. The Hill coefficient was calculated by linear regression of the line obtained by plotting the log of the bound radioligand vs the log of the • bound radioligand • Bmax - bound radioligand • The maximal number of binding sites (Bmax) was calculated from the Scatchard plot.

T1 sequence (P30543 whole entry): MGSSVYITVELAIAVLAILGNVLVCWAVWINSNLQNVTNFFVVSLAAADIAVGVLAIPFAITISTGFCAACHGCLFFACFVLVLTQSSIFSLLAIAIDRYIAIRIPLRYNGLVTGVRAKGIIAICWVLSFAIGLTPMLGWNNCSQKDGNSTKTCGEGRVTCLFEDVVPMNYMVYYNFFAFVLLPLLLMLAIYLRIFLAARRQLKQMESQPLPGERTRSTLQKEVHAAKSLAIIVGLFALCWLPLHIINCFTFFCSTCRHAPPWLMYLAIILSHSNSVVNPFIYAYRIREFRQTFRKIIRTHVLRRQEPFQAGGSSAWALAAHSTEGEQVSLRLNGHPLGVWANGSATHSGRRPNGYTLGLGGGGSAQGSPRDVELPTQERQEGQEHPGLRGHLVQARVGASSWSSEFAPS

In the case of `Cc1ccc(C(C)C)c2c1CC(Nc1ncnc3c1ncn3[C@@H]1O[C@H](CO)[C@@H](O)[C@H]1O)CO2` (some centres unmarked) [Example 12, N^6-[8-lsopropyl-5-methyl-3-chromanylamino]adenosine], the IC50 [1] is reported as 1540 nM and the IC50 [2] is reported as 188 nM.
